Laboratory results taken from patent publication US8173609B2, “Macrolides useful against inflammatory and allergic diseases” (Basilea Pharmaceutica AG, priority 2006, dated 2012).

Tested on: human PDE4
Test: PDE4 inhibition, in vitro enzymatic IMAP FP assay
Format: biochemical
Settings: for IC50: PDE4 partially purified from human monocytic U-937 cells, fluorescence polarization
Experimental: PDE4 specifically hydrolyzes cAMP and releases the product AMP. The potency of PDE inhibition by said agents was determined in an in vitro enzymatic assay. The assay is commercially available (IMAP™ FP assay Molecular Devices Corp.) and was optimized for the use of human PDE4. Fluorescently labeled cAMP was hydrolyzed by PDE4 and in a second step, binding of labeled product to a large binding partner allowed product detection by fluorescence polarization (FP) measurements.
PDE4 was partially purified from undifferentiated human monocytic cells (U-937) according to Thorpy et al. 1992 (J. Pharmacol. Exp. Ther. 263: 1195). […] In addition, PDE4 preparations were validated by inhibition studies with PDE4-specific and unspecific PDE inhibitors.
Stock solutions of test compounds were made in DMSO and diluted in assay buffer (10 mM Tris-HCl, 10 mM MgCl2, 0.1% BSA 0.05% NaN3, pH 7.2) to the desired concentrations. The solutions used in the assay contained test compound in assay buffer with 2% DMSO.
10 μl of substrate (at a concentration recommended by the manufacturer) were mixed with 5 μl of appropriately diluted PDE and 5 μl of test compound solution. 5 μl of reaction buffer with 2% DMSO were used for control reactions. […] After incubation for 90 minutes at room temperature, 60 μl of binding reagent were added as specified by the manufacturer. Binding was allowed to proceed for 30 minutes and fluorescence polarization was measured. Dose dependence of PDE inhibition was measured by assaying dilution series of test compounds in duplicates. IC50 values were determined from the measured activities by curve fitting.

Compound: CC[C@H]1OC(=O)[C@H](C)[C@@H](O[C@H]2C[C@@](C)(OC)[C@@H](O)[C@H](C)O2)[C@H](C)[C@@H](O[C@@H]2O[C@H](C)C[C@H](N(C)C)[C@H]2O)[C@](C)(OC)C[C@@H](C)C(=O)[C@H](C)[C@H]2[C@H](SCCn3cnc4c(N)nc(NCc5ccncc5)nc43)C(=O)O[C@@]21C [Example 13, Compound of Formula I where R1 is [2-[6-amino-2-[[(4-pyridyl)methyl]amino]-purin-9-yl]ethyl]thio, R2 and R3 taken together form a C═O Group and R4 is Methyl]
- IC50: 2.6 µM

Compound: CCC1OC(=O)C(C)C(OC2CC(C)(OC)C(O)C(C)O2)C(C)C(OC2OC(C)CC(N(C)C)C2O)C(C)(OC)CC(C)C(=O)C(C)C2C(SCCN(C(=O)c3ccncc3)c3ccc(OC)c(OC4CCCC4)c3)C(=O)OC12C (stereo not shown) [Example 3, Compound of Formula I where R1 is [2-[(3cyclopentyloxy-4-methoxy-phenyl)-(pyridin-4-yl-carbonyl)-amino]ethyl]thio, R2 and R3 taken together form a C═O Group and R4 is Methyl]
- IC50: 3.4 µM

Compound: CC[C@H]1OC(=O)[C@H](C)[C@@H](O[C@H]2C[C@@](C)(OC)[C@@H](O)[C@H](C)O2)[C@H](C)[C@@H](O[C@@H]2O[C@H](C)C[C@H](N(C)C)[C@H]2O)[C@](C)(OC)C[C@@H](C)C(=O)[C@H](C)[C@H]2[C@H](SCCn3cnc4c(N)ncc(C(=O)Nc5ccncc5)c43)C(=O)O[C@@]21C [Example 10, Compound of Formula I where R1 is [2-[4-amino-7-(pyridin-4-yl-amino-carbonyl)-imidazo[4,5-c]pyridin-1-yl]-ethyl]thio, R2 and R3 taken together form a C═O Group and R4 is Methyl]
- IC50: 1 µM

Compound: CCC1OC(=O)C(C)C(OC2CC(C)(OC)C(O)C(C)O2)C(C)C(OC2OC(C)CC(N(C)C)C2O)C(C)(OC)CC(C)C(=O)C(C)C2C(SCCN(Cc3ccncc3)c3ccc(OC)c(OC4CCCC4)c3)C(=O)OC12C (stereo not shown) [Example 4, compound of formula I where R1 is [2-[(3-cyclopentyloxy-4-methoxy-phenyl)-(pyridin-4-ylmethyl)-amino]-ethyl]thio, R2 and R3 taken together form a C═O Group and R4 is Methyl]
- IC50: 0.28 µM

Compound: CC[C@H]1OC(=O)[C@H](C)[C@@H](O[C@H]2C[C@@](C)(OC)[C@@H](O)[C@H](C)O2)[C@H](C)[C@@H](O[C@@H]2O[C@H](C)C[C@H](N(C)C)[C@H]2O)[C@](C)(OC)C[C@@H](C)C(=O)[C@H](C)[C@H]2[C@H](SCCn3cnc4c(N)ncc(C(=O)Nc5c(Cl)cncc5Cl)c43)C(=O)O[C@@]21C [Example 11, compound of formula I where R1 is [2-[4-amino-7-(3,5-dichloro-pyridin-4-yl-amino-carbonyl)-imidazo[4,5-c]pyridin-1-yl]-ethyl]thio, R2 and R3 taken together form a C═O Group and R4 is Methyl]
- IC50: 0.008 µM
- IC50(PDE4) relative to the IC50(PDE4) for the macrolide substituent in free form (ratio of Example 11 IC50 to IC50 of free substituent drawing 48): about one five hundredth

Compound: CCC1OC(=O)C(C)C(OC2CC(C)(OC)C(O)C(C)O2)C(C)C(OC2OC(C)CC(N(C)C)C2O)C(C)(OC)CC(C)C(=O)C(C)C2C(SCCCn3cnc4c(N)ncc(C(=O)NCC(=O)OC)c43)C(=O)OC12C (stereo not shown) [Example 9, compound of formula I where R1 is [3-[4-amino-7-([methoxycarbonylmethyl]-amino-carbonyl)-imidazo[4,5-c]pyridin-1-yl]-propyl]thio, R2 and R3 taken together form a C═O Group and R4 is Methyl]
- IC50: 24.2 µM

Compound: CCC1OC(=O)C(C)C(OC2CC(C)(OC)C(O)C(C)O2)C(C)C(OC2OC(C)CC(N(C)C)C2O)C(C)(OC)CC(C)C(=O)C(C)C2C(SCCn3c(Nc4cccnc4)nc4c(N)ncnc43)C(=O)OC12C (stereo not shown) [Example 2, compound of formula I where R1 is [2-[6-Amino-8-(pyridin-3-ylamino)-purin-9-yl]ethyl]thio, R2 and R3 taken together form a C═O Group and R4 is Methyl]
- IC50: 3.9 µM

Compound: CCC1OC(=O)C(C)C(OC2CC(C)(OC)C(O)C(C)O2)C(C)C(OC2OC(C)CC(N(C)C)C2O)C(C)(OC)CC(C)C(=O)C(C)C2C(SCCCc3c(C(=O)Nc4ccncc4)ccc(OC)c3OC)C(=O)OC12C (stereo not shown) [Example 7, Compound of Formula I where R1 is [3-[2,3-dimethoxy-6-(pyridin-4-yl-amino-carbonyl)phenyl]-propyl]thio, R2 and R3 taken together form a C═O Group and R4 is Methyl]
- IC50: 7.6 µM

Compound: CC[C@H]1OC(=O)[C@H](C)[C@@H](O[C@H]2C[C@@](C)(OC)[C@@H](O)[C@H](C)O2)[C@H](C)[C@@H](O[C@@H]2O[C@H](C)C[C@H](N(C)C)[C@H]2O)[C@](C)(OC)C[C@@H](C)C(=O)[C@H](C)[C@H]2[C@H](SCCn3cnc4c(N)nc(NCc5cccnc5)nc43)C(=O)O[C@@]21C [Example 12, Compound of Formula I where R1 is [2-[6-amino-2-[[(3-pyridyl)methyl]amino]-purin-9-yl]ethyl]thio, R2 and R3 taken together form a C═O Group and R4 is Methyl]
- IC50: 3.8 µM

Compound: CC[C@H]1OC(=O)[C@H](C)[C@@H](O[C@H]2C[C@@](C)(OC)[C@@H](O)[C@H](C)O2)[C@H](C)[C@@H](O[C@@H]2O[C@H](C)C[C@H](N(C)C)[C@H]2O)[C@](C)(OC)C[C@@H](C)C(=O)[C@H](C)[C@H]2[C@H](SC)C(=O)O[C@@]21C [reference compound]
- PDE4-inhibiting activity (up to a concentration of 50 μM in the assay used in the examples): does not show any PDE4-inhibiting activity

Compound: compound of formula I where R1 is [3-[4-Amino-7-(pyridin-4-yl-amino-carbonyl)-imidazo[4,5-c]pyridin-1-yl]-propyl]thio, R2 and R3 taken together form a C═O Group and R4 is Methyl [Example 8]
- IC50: 4.7 µM

Compound: CCC1OC(=O)C(C)C(OC2CC(C)(OC)C(O)C(C)O2)C(C)C(OC2OC(C)CC(N(C)C)C2O)C(C)(OC)CC(C)C(=O)C(C)C2C(SCCN(Cc3cccnc3)c3ccc(OC)c(OC4CCCC4)c3)C(=O)OC12C (stereo not shown) [Example 5, Compound of Formula I where R1 is [2-[(3-cyclopentyloxy-4-methoxy-phenyl)-(pyridin-3-ylmethyl)-amino]-ethyl]thio, R2 and R3 taken together form a C═O Group and R4 is Methyl]
- IC50: 0.85 µM

Compound: compound of formula I where R1 is [2-[(5-(3,5-dichloro-pyridin-4-yl-amino-carbonyl)-1-ethyl-1H-pyrazolo[3,4-b]pyridin-4-ylamino]-ethyl]thio, R2 and R3 taken together form a C═O Group and R4 is Methyl [Example 6]
- IC50: 0.37 µM

Compound: CCC1OC(=O)C(C)C(OC2CC(C)(OC)C(O)C(C)O2)C(C)C(OC2OC(C)CC(N(C)C)C2O)C(C)(OC)CC(C)C(=O)C(C)C2C(SCCn3c(CCc4cccnc4)nc4c(N)ncnc43)C(=O)OC12C (stereo not shown) [Example 1, compound of formula I where R1 is [2-[6-Amino-8-(2-pyridin-3-yl-ethyl)-purin-9-yl]ethyl]thio, R2 and R3 taken together form a C═O group and R4 is methyl]
- IC50: 13.4 µM

Compound: CSCCn1cnc2c(N)ncc(C(=O)Nc3c(Cl)cncc3Cl)c21 [reference compound]
- IC50: 3.6 µM
